# Where a SMILES comes first, the peptide text is derived from it.
# Key:
# [1] = tested on: P. aeruginosa (Liberec) biofilm; assay: Bacterial biofilm, remaining metabolic activity (MTT); format: cell-based, Pseudomonas aeruginosa; settings: remaining metabolic activity of biofilm, 20 h
# Method in brief: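 Biofilms of S. aureus or P. aeruginosa (Liberec) were grown 24 h at 37° C with shaking in BHI plus 1% glucose from ca. 10^8 CFU/ml inocula. After washing, biofilms were exposed 20 h to peptides at 1–128 μmol.l^−1. Surviving metabolic activity was measured by MTT (40 min, formazan in DMSO, A540) as percent of untreated biofilm, blank-corrected.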
# [2] = tested on: Pseudomonas aeruginosa Liberec; settings: Pseudomonas aeruginosa Liberec; 37° C., 20 h
# Method in brief: (§1)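 MIC broth microdilution, LB, ~10^5 CFU/well, peptide 0.1–100 μmol.l^−1 (twofold series). 37 °C, 20 h, continuous shaking; A540 every 15 min.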
# [3] = tested on: Enterococcus faecalis Motol; settings: BHI medium, 37° C., 20 h
# [4] = tested on: Staphylococcus epidermidis Motol; settings: 37° C., 20 h
# Method in brief: as §1
# [5] = tested on: Staphylococcus aureus Motol; settings: Staphylococcus aureus Motol clinical isolate; 37° C., 20 h
# Method in brief: as §1
# [6] = tested on: Bacillus subtilis; settings: Bacillus subtilis; 37° C., 20 h
# Method in brief: as §1
# [7] = tested on: Candida albicans Olomouc; settings: Candida albicans Olomouc; YPD medium; 37° C., 20 h (Example 2)
# [8] = tested on: Pseudomonas aeruginosa 5482; settings: 37° C., 20 h
# Method in brief: as §1
# [9] = tested on: Escherichia coli; settings: 37° C., 20 h
# Method in brief: as §1
# [10] = tested on: Methicillin resistant Staphylococcus aureus (MRSA) 6271; settings: 37° C., 20 h
# Method in brief: as §1
# [11] = tested on: Staphylococcus aureus Liberec; settings: Staphylococcus aureus Liberec clinical isolate; 37° C., 20 h
# Method in brief: as §1
# [12] = tested on: Micrococcus luteus; settings: Micrococcus luteus; 37° C., 20 h
# Method in brief: as §1
# [13] = in vitro; settings: human
# Method in brief: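 Peptides at 2-200 μmol.l^−1 incubated 1 h at 37 °C with 5% v/v human erythrocyte suspension in physiological solution. Released haemoglobin in supernatant read at 540 nm against buffer (0%) and 0.2% Triton X100 (100%) lysis controls. LC50 is the peptide concentration lysing 50% of cells.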
smiles,measurement,setting,value
CCCC[C@H](NC(=O)[C@H](CC(C)C)NC(=O)[C@H](CO)NC(=O)[C@H](CO)NC(=O)[C@H](CCCC)NC(=O)[C@@H](NC(=O)CN)[C@@H](C)CC)C(=O)N[C@@H](CCCCN)C(=O)N[C@@H](CCCCN)C(=O)N[C@@H](CC(C)C)C(=O)N[C@@H](CCCCN)C(=O)N[C@@H](CCCCN)C(=O)N[C@H](C(=O)N[C@H](C(=O)N[C@@H](C)C(=O)N[C@@H](CCCCN)C(N)=O)[C@@H](C)CC)[C@@H](C)CC [V] (HELM PEPTIDE1{G.I.[Nle].S.S.L.[Nle].K.K.L.K.K.I.I.A.K.[am]}$$$$V2.0),Metabolic activity (%) P. aeruginosa (Liberec),[1]; peptide concentration 8 μmol · l^−1,65.5%
same,Metabolic activity (%) P. aeruginosa (Liberec),[1]; peptide concentration 16 μmol · l^−1,59.8%
same,Metabolic activity (%) P. aeruginosa (Liberec),[1]; peptide concentration 32 μmol · l^−1,64.9%
same,Metabolic activity (%) P. aeruginosa (Liberec),[1]; peptide concentration 64 μmol · l^−1,61.4%
same,Metabolic activity (%) P. aeruginosa (Liberec),[1]; peptide concentration 128 μmol · l^−1,49.3%
same,Antimicrobial activity MIC P. a. Liberec,[2],7.9 µM
same,Antimicrobial activity MIC E. f. Motol,[3],54.0 µM
same,Antimicrobial activity MIC S. e. Motol,[4],2.5 µM
same,Antimicrobial activity MIC S. a. Motol,[5],6.7 µM
same,Antimicrobial activity MIC B. s.,[6],3.5 µM
same,Antimicrobial activity MIC C. a. Olomouc,[7],10.0 µM
same,Antimicrobial activity MIC P. a. 5482,[8],4.0 µM
same,Antimicrobial activity MIC E. c.,[9],10.0 µM
same,Antimicrobial activity MIC S. a. 6271,[10],12.7 µM
same,Antimicrobial activity MIC S. a. Liberec,[11],4.0 µM
same,Antimicrobial activity MIC M. l.,[12],1.6 µM
same,HC50 at 1 h,[13],373 µM
